We go through 20 molecules from ChEMBL document CHEMBL3425489, “X-ray crystal structures of Escherichia coli RNA polymerase with switch region binding inhibitors enable rational design of squaramides with an improved fraction unbound to human plasma protein” (J Med Chem, 2015).

SMILES strings stand for the structures. In brackets after ≈: the same amount, converted by molar mass. Bounds are passed on as bounds.

Data set [1] is described as follows: Inhibition of Escherichia coli switch region of RNA polymerase after 1 hr by transcription-coupled translation assay.
A further data set concerns Plasma. The data set is described as follows: (§1) Fraction unbound (%) in human plasma at 10 uM by LC/MS-MS analysis. Format: ADME, cell-free. Particulars: 10 µM.
The nature of data set [2]: Equilibrium solubility of the compound in phosphate buffer by LC-MS analysis.
For data set [3] the following is noted: octanol/water, pH 7.4.
Description: (§2) Partition coefficient, log D of the compound at pH 7.4 by shake flask method
The subject of another data set is Haemophilus influenzae. The data set is described as follows: Antibacterial activity against Haemophilus influenzae acrB by broth microdilution method. The data set is classed as functional.
Data set [4] can be described thus: as §1. The data set is classed as ADME, cell-free.
A further data set is described as follows: physchem. Particulars: octanol/water, pH 7.4.

Description for physchem: as §2

By IC50 is commonly meant the concentration needed to halve the response being measured. Read a high IC50 as lower potency. A word on the solubility (thermodynamic): it is solubility found after equilibrating the solid with the medium. Usually logD stands for the decadic logarithm of the distribution of all forms, ionised or not, between an organic phase and buffer at a given pH. A low value points to lower lipophilicity. In data set [1], `Cc1noc(C)c1S(=O)(=O)Nc1c(N2CCC(C)CC2)c(=O)c1=O` returned a half-inhibitory concentration (IC50) above 100000 nM. Further, the Fu with Plasma turned out to be 1.6%. This molecule also returned a thermodynamic solubility in data set [2] of 773 µM (≈ 273 µg/mL). In data set [3], this molecule showed a log distribution coefficient (logD) of -1.

For orientation: fraction unbound means the share of the substance not bound to proteins or other matrix. Regarding `Cc1noc(C)c1S(=O)(=O)Nc1c(N2CCC(Cc3ccccc3)CC2)c(=O)c1=O`, in data set [1], 280 nM corresponded to half-maximal inhibition (IC50). Moreover, the MIC against Haemophilus influenzae was determined as 200 µM (≈ 85.9 µg/mL). Besides, in data set [4], the fraction unbound at 10 µM was below 0.01. In data set [2], this molecule registered a thermodynamic solubility above 1000 µM. The molecule further returned a logD in the data set “physchem” of 0.1.

Molecule `Cc1ccc(CC2CCN(c3c(NS(=O)(=O)c4c(C)noc4C)c(=O)c3=O)CC2)cc1` returned an IC50 in data set [1] of 290 nM. In the data set with Haemophilus influenzae, this molecule came in with an MIC of 12.5 µM (≈ 5.54 µg/mL). In the data set on Plasma, this molecule yielded a Fu below 1%. The solubility (thermodynamic) in data set [2] was above 1000 µM. Besides, in data set [3], the logD was 0.5.

In the case of `Cc1noc(C)c1S(=O)(=O)Nc1c(N2CCC(NCc3ccc(F)cc3)CC2)c(=O)c1=O`, the concentration for half-maximal inhibition (IC50) in data set [1] worked out at 2700 nM. The same molecule had an MIC in the data set with Haemophilus influenzae above 200 µM. Besides, the Fu in the data set on Plasma is given as 26%. In data set [2], this molecule showed a solubility (thermodynamic) of 52 µM (≈ 24.1 µg/mL). Besides, the logD in data set [3] was determined as 0.

For the molecule `CC(=O)NC[C@H]1CN(c2ccc(N3CCOCC3)c(F)c2)C(=O)O1` [LINEZOLID], in the data set with Haemophilus influenzae, the MIC worked out at 12.5 µM (≈ 4.22 µg/mL).

For `COc1ccc(CN2CCN(c3c(NS(=O)(=O)c4c(C)noc4C)c(=O)c3=O)CC2)cc1`, it took 3000 nM to reach half-maximal inhibition in data set [1] (IC50). The molecule further came in with an MIC against Haemophilus influenzae above 200 µM. The Fu in the data set with Plasma is recorded as 1.8%. Moreover, in data set [2], the solubility (thermodynamic) is 497 µM (≈ 229 µg/mL). The molecule further returned a log distribution coefficient (logD) in data set [3] of -0.9.

In data set [1], `CCCC/C(C)=C/C=C(\C)C(=O)c1c(O)cc(C(C)CC/C=C/NC(=O)OC)oc1=O` (racemic) registered an IC50 of 1000 nM. The molecule also came in with a Fu in the data set on Plasma below 1%. The molecule also yielded a solubility (thermodynamic) in data set [2] of 679 µM (≈ 293 µg/mL). In data set [3], this molecule displayed a logD of -0.3.

In data set [1], `Cc1noc(C)c1S(=O)(=O)Nc1c(N2CCC(c3ccccc3)CC2)c(=O)c1=O` had a half-maximal inhibitory concentration (IC50) of 26000 nM. In addition, the Fu in the data set on Plasma was below 1%. Moreover, in data set [2], the solubility (thermodynamic) came to 763 µM (≈ 317 µg/mL). The logD in data set [3] is on record as -0.6.

In data set [1], `Cc1noc(C)c1S(=O)(=O)Nc1c(N2CCC(CCc3ccccc3)CC2)c(=O)c1=O` gave an IC50 of 320 nM. For the same molecule, in the data set on Plasma, the Fu was below 1%. Further, the solubility (thermodynamic) in data set [2] came to 636 µM (≈ 282 µg/mL). The log distribution coefficient (logD) in data set [3] is listed as 0.

With `Cc1noc(C)c1S(=O)(=O)Nc1c(N2CCN(CCc3ccccc3)CC2)c(=O)c1=O`, the IC50 in data set [1] worked out at 43000 nM. In the data set with Plasma, this molecule came in with a Fu of 4.9%. The solubility (thermodynamic) in data set [2] was 560 µM (≈ 249 µg/mL). The same molecule returned a pH-dependent lipophilicity (logD) in data set [3] of -0.4.

The molecule `Cc1nn(C(F)F)cc1S(=O)(=O)Nc1c(N2CCC(Cc3ccccc3)CC2)c(=O)c1=O` yielded a half-inhibitory concentration (IC50) in data set [1] of 7900 nM. The same molecule gave an MIC in the data set with Haemophilus influenzae of 100 µM (≈ 46.4 µg/mL). The molecule further showed a Fu with Plasma below 1%. Besides, the thermodynamic solubility in data set [2] is above 1000 µM. This molecule displayed a pH-dependent lipophilicity (logD) in data set [3] of -0.1.

On to `Cc1noc(C)c1S(=O)(=O)Nc1c(N2CCC(NCc3ccc(C(F)(F)F)cc3)CC2)c(=O)c1=O`, for which half-maximal inhibition in data set [1] (IC50) was put at 290 nM. Further, in the data set on Haemophilus influenzae, the MIC came out at 25 µM (≈ 12.8 µg/mL). The molecule also had a Fu with Plasma of 6.6%. This molecule displayed a solubility (thermodynamic) in data set [2] above 1000 µM. The same molecule gave a pH-dependent lipophilicity (logD) in data set [3] of 0.8.

Molecule `O=c1c(NS(=O)(=O)c2ccccc2)c(N2CCC(Cc3ccccc3)CC2)c1=O` displayed an IC50 in data set [1] of 2100 nM. In the data set on Haemophilus influenzae, this molecule registered an MIC of 200 µM (≈ 82.1 µg/mL). Also, in the data set on Plasma, the Fu is listed as below 1%. Further, the solubility (thermodynamic) in data set [2] is above 1000 µM. For the same molecule, the log distribution coefficient (logD) in data set [3] amounted to 0.2.

`Cc1noc(C)c1S(=O)(=O)Nc1c(N2CCC(N(C)Cc3ccc(OC(F)F)cc3)CC2)c(=O)c1=O`: the IC50 in data set [1] was 430 nM. Besides, the MIC in the data set with Haemophilus influenzae was 50 µM (≈ 26.2 µg/mL).

In the case of `Cc1noc(C)c1S(=O)(=O)Nc1c(N2CCCC(Cc3ccccc3)C2)c(=O)c1=O` (centres undefined), in data set [1], half-maximal inhibition (IC50) was put at 71000 nM. Besides, the Fu in the data set with Plasma is on record as below 1%. Besides, the thermodynamic solubility in data set [2] is 985 µM (≈ 423 µg/mL). For the same molecule, the logD in data set [3] was -0.3.

`CO[C@H]1/C=C/O[C@@]2(C)Oc3c(C)c(O)c4c(O)c(c(/C=N/N5CCN(C)CC5)c(O)c4c3C2=O)NC(=O)/C(C)=C\C=C\[C@H](C)[C@H](O)[C@@H](C)[C@@H](O)[C@@H](C)[C@H](OC(C)=O)[C@@H]1C` [RIFAMPIN] showed an MIC in the data set on Haemophilus influenzae of 0.025 µM (≈ 0.0206 µg/mL). Also, the Fu with Plasma was found to be 16.5%. For the same molecule, the thermodynamic solubility in data set [2] was 751 µM (≈ 618 µg/mL). The molecule further came in with a logD in data set [3] of 1.3.

In the case of `Cc1noc(C)c1S(=O)(=O)Nc1c(N2CCN(Cc3ccc(C#N)cc3)CC2)c(=O)c1=O`, in data set [1], half-maximal inhibition (IC50) was put at 1500 nM. In the data set with Haemophilus influenzae, this molecule came in with an MIC of 200 µM (≈ 91.1 µg/mL). The molecule further displayed a Fu with Plasma of 2.9%. The solubility (thermodynamic) in data set [2] is above 1000 µM. In data set [3], the pH-dependent lipophilicity (logD) is -1.3.

The molecule `Cc1noc(C)c1C(=O)Nc1c(N2CCC(Cc3ccccc3)CC2)c(=O)c1=O` showed an IC50 in data set [1] above 100000 nM. Besides, in the data set on Plasma, the Fu is reported as below 1%. For the same molecule, the thermodynamic solubility in data set [2] came out at 508 µM (≈ 200 µg/mL). Besides, the logD in data set [3] worked out at 1.7.

With `Cc1noc(C)c1S(=O)(=O)Nc1c(N2CCC(N(C)CC3CCCCC3)CC2)c(=O)c1=O`, the IC50 in data set [1] was above 100000 nM. This molecule also yielded a Fu in the data set on Plasma of 38%. Besides, the thermodynamic solubility in data set [2] was found to be 12.2 µM (≈ 5.67 µg/mL). Moreover, the log distribution coefficient (logD) in data set [3] was -0.4.

The molecule `Cc1noc(C)c1S(=O)(=O)Nc1c(N2CCC(N(C)Cc3ccc(Cl)cc3)CC2)c(=O)c1=O` had a concentration for half-maximal inhibition (IC50) in data set [1] of 330 nM. In addition, in the data set with Haemophilus influenzae, the MIC was 50 µM (≈ 24.6 µg/mL). The molecule also came in with a Fu in the data set on Plasma of 3.8%. For the same molecule, the solubility (thermodynamic) in data set [2] is above 1000 µM. Further, in data set [3], the logD was determined as 0.5.
